# Test results published in patent US9844536B2, “3-(1H-imidazo[4,5-C]pyridin-2-yl)-1H-pyrazolo[3,4-C]pyridine and therapeutic uses thereof” (Samumed, LLC, priority 2014, dated 2017).
# Key:
# Format in all cases: cell-based
# LL29 cells = assay: Inhibition of the fibrotic process (αSMA staining) in TGF-β1 treated primary human fibroblasts from IPF patients; conditions: Fibroblast, 96 h, TGF-β1 20 ng/mL, 4 days, dose-response 10 μM to 1.87 nM, read-out: Inhibition of fibrosis EC50
# Method in brief: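 LL29 IPF lung fibroblasts in 1% FBS were stimulated with TGF-β1 (20 ng/mL) and treated 4 days at 37 °C with compound (11 points, 10 μM–1.87 nM, 0.1% DMSO). The % αSMA-positive cells, imaged after excluding SYTOX-positive dead cells, was normalized to TGF-β1/DMSO wells. EC50 came from nonlinear regression over triplicates.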
# [1] = tested on: primary human mesenchymal stem cells (hMSCs); assay: Chondrogenesis induction screen in primary human mesenchymal stem cells (nodules, Rhodamine B/Nile Red); conditions: 144 h, 6 days; for EC (100% TGF-beta3 activity): concentration required to induce chondrogenesis equivalent to TGF-β3 (10 ng/mL), read-out: Conc (nM) of 100% TGF-β3 activity; for Emax: relative to TGF-β3 (10 ng/mL) positive control, read-out: Max. Activity as % TGF-β3 activity
# Description: The above synthesized compounds were screened using primary human mesenchymal stem cells (hMSCs) to determine their ability to induce chondrogenesis (process by which cartilage is developed).
# Primary human mesenchymal stem cells (hMSCs) were purchased from Lonza (Walkersville, Md.) and expanded in Mesenchymal Stem Cell Growth Media (Lonza). Cells between passage 3 and 6 were used for the experiments.
# Each compound was dissolved in DMSO as a 10 mM stock and used to prepare compound source plates. Serial dilution (1:3, 6-point dose-response curves from 2700 nM to 10 nM) and compound transfer was performed using the ECHO 550 (Labcyte, Sunnyvale, Calif.) into 96-well clear bottom assay plates (Greiner Bio-One) with appropriate DMSO backfill for a final DMSO concentration of 0.03%. hMSCs were plated at 20,000 cells/well in 250 μL/well Incomplete Chondrogenic Induction Medium (Lonza; DMEM, dexamethasone, ascorbate, insulin-transferrin-selenium [ITS supplement], gentamycin-amphotericin [GA-1000], sodium pyruvate, proline and L-glutamine). TGF-β3 (10 ng/mL) was used as a positive control for differentiation while negative control wells were treated with 75 nL DMSO for normalization and calculating EC50 values. Cells were incubated at 37° C. and 5% CO2 for 6 days. To image chondrogenic nodules, the cells were fixed using 4% formaldehyde (Electron Microscopy Sciences), and stained with 2 μg/mL Rhodamine B (Sigma-Aldrich) and 20 μM Nile Red (Sigma-Aldrich) [Johnson K., et. al, A Stem Cell-Based Approach to Cartilage Repair, Science, (2012), 336(6082), 717-721]. The nodules imaged (4 images per well at 4× magnification) by excitation at 531 nm and emission at 625 nm and quantified using the CellInsight CX5 (Thermo Scientific). Number of nodules in each well was normalized to the average of 3 DMSO treated wells on the same plate using Excel (Microsoft Inc.). The normalized averages (fold change over DMSO) of 3 replicate wells for each compound concentration were calculated. Due to solubility limitations of some of the compounds, curve fitting was incomplete leading to inaccurate EC50 determinations.
# Using TGF-03 as a positive control, the concentration of test compounds required to induce equivalent levels of chondrogenesis is reported. In addition, the maximum activity of each compound and the respective dose that each compound reached maximum chondrogenesis activity is reported.
# [2] = tested on: Wnt pathway (Sp5-Luc reporter, SW480 cells); assay: Sp5-Luc reporter gene screening assay for Wnt activity in SW480 colon carcinoma cells; conditions: Homo sapiens
# Method in brief: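 IC50 values come from variable-slope four-parameter fits of luciferase signal normalized to DMSO wells. Stable Sp5-Luc reporter SW480 colon carcinoma cells were exposed to compounds in a 3-fold dilution series (source plates from 10 mM stock) for forty-two hours at 37 °C.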
IC50 [2] [nM],Structure (SMILES),EC50 (LL29 cells) [nM],EC (100% TGF-beta3 activity) [1] [nM],Emax [1] [%]
10.7,"CCCC(=O)Nc1cncc(-c2cc3c(-c4nc5c(-c6cccc(F)c6)nccc5[nH]4)n[nH]c3cn2)c1 [Compound 17, N-(5-(3-(4-(3-Fluorophenyl)-1H-imidazo[4,5-c]pyridin-2-yl)-1H-pyrazolo[3,4-c]pyridin-5-yl)pyridin-3-yl)butyramide]",≤ 9,67.8,10
16.6,"Nc1cncc(-c2cc3c(-c4nc5c(-c6ccccc6F)nccc5[nH]4)n[nH]c3cn2)c1 [Compound 55, 5-(3-(4-(2-Fluorophenyl)-1H-imidazo[4,5-c]pyridin-2-yl)-1H-pyrazolo[3,4-c]pyridin-5-yl)pyridin-3-amine]",≤ 9,145,
1.7,"c1cncc(-c2cc3c(-c4nc5c(-c6cccnc6)nccc5[nH]4)n[nH]c3cn2)c1 [Compound 82, 5-(Pyridin-3-yl)-3-(4-(pyridin-3-yl)-1H-imidazo[4,5-c]pyridin-2-yl)-1H-pyrazolo[3,4-c]pyridine]",,44.5,
61.6,"FC1(F)CCN(Cc2cncc(-c3cc4c(-c5nc6c(N7CCCCC7)nccc6[nH]5)n[nH]c4cn3)c2)C1 [Compound 181, 5-(5-((3,3-Difluoropyrrolidin-1-yl)methyl)pyridin-3-yl)-3-(4-(piperidin-1-yl)-1H-imidazo[4,5-c]pyridin-2-yl)-1H-pyrazolo[3,4-c]pyridine]",140,68.1,
32.8,"Cc1cn(-c2nccc3[nH]c(-c4n[nH]c5cnc(-c6cncc(NC(=O)C(C)(C)C)c6)cc45)nc23)cn1 [Compound 190, N-(5-(3-(4-(4-Methyl-1H-imidazol-1-yl)-1H-imidazo[4,5-c]pyridin-2-yl)-1H-pyrazolo[3,4-c]pyridin-5-yl)pyridin-3-yl)pivalamide]",,71.8,100
11.3,"CCNCc1cncc(-c2cc3c(-c4nc5c(-c6ccsc6)nccc5[nH]4)n[nH]c3cn2)c1 [Compound 266, N-((5-(3-(4-(Thiophen-3-yl)-1H-imidazo[4,5-c]pyridin-2-yl)-1H-pyrazolo[3,4-c]pyridin-5-yl)pyridin-3-yl)methyl)ethanamine]",≤ 9,67.7,30
15,"CC(C)Nc1cncc(-c2cc3c(-c4nc5c(-c6ccoc6)nccc5[nH]4)n[nH]c3cn2)c1 [Compound 298, 5-(3-(4-(Furan-3-yl)-1H-imidazo[4,5-c]pyridin-2-yl)-1H-pyrazolo[3,4-c]pyridin-5-yl)-N-isopropylpyridin-3-amine]",65,219,300
16.4,"O=C(Nc1cncc(-c2cc3c(-c4nc5c(-c6cccs6)nccc5[nH]4)n[nH]c3cn2)c1)C1CC1 [Compound 331, N-(5-(3-(4-(Thiophen-2-yl)-1H-imidazo[4,5-c]pyridin-2-yl)-1H-pyrazolo[3,4-c]pyridin-5-yl)pyridin-3-yl)cyclopropanecarboxamide]",≤ 9,68.4,
12.6,"CC(C)(C)C(=O)Nc1cncc(-c2cc3c(-c4nc5c(-c6ccc(F)s6)nccc5[nH]4)n[nH]c3cn2)c1 [Compound 346, N-(5-(3-(4-(5-Fluorothiophen-2-yl)-1H-imidazo[4,5-c]pyridin-2-yl)-1H-pyrazolo[3,4-c]pyridin-5-yl)pyridin-3-yl)pivalamide]",≤ 9,40.9,
2.1,"Cc1ccc(-c2nccc3[nH]c(-c4n[nH]c5cnc(-c6cncc(N)c6)cc45)nc23)s1 [Compound 367, 5-(3-(4-(5-Methylthiophen-2-yl)-1H-imidazo[4,5-c]pyridin-2-yl)-1H-pyrazolo[3,4-c]pyridin-5-yl)pyridin-3-amine]",≤ 9,259,10
